This is an account of results in ChEMBL document CHEMBL1152722, “5-Aryl-4-(5-substituted-2,4-dihydroxyphenyl)-1,2,3-thiadiazoles as inhibitors of Hsp90 chaperone” (Bioorg Med Chem Lett, 2009).

The test system of one experiment is U2OS. The experiment can be described thus: Growth inhibition of human U2OS cells after 72 hrs by XTT assay. It is filed as functional.
The next experiment deals with HeLa. Kind of experiment: Growth inhibition of human HeLa cells after 72 hrs by XTT assay. The format is functional.
Experiment [1] concerns the target Heat shock protein HSP 90-alpha (Homo sapiens, UniProt P07900).
Description: Binding affinity to human full length Histidine6-tagged Hsp90alpha expressed in Escherichia coli BL21 DE3 by ITC
The target of the next experiment is Heat shock protein HSP90 (Homo sapiens, UniProt P07900+P08238).

SMILES strings stand for the structures.

Description for Heat shock protein HSP90: Binding affinity to human Histidine6-tagged Hsp90alpha N-terminal domain expressed in Escherichia coli BL21 DE3 by ITC

Regarding `COc1ccc(-c2snnc2-c2cc(Cl)c(O)cc2O)cc1`, the GI50 with U2OS came out at 6 µM; in the experiment with HeLa, 2.5 µM.

As to `Cc1ccc(-c2snnc2-c2cc(Cl)c(O)cc2O)cc1`, the figures for the concentration for 50% growth inhibition (GI50) with U2OS and with HeLa were 7.1 µM and 3.3 µM, respectively.

Consider `COc1ccc(-c2snnc2-c2cc(Cl)c(O)c(Cl)c2O)cc1`, for which the Kd (in experiment [1]; on Heat shock protein HSP90) was above 20 µM in each case.

Consider `CCOc1ccc(-c2snnc2-c2cc(CC)c(O)cc2O)cc1`, for which the 50% growth inhibitory concentration (GI50) is 0.69 µM with U2OS and 0.7 µM in the experiment on HeLa.

With `COc1ccc(-c2snnc2-c2cc(Cl)c(O)cc2O)cc1OC`, the results for the GI50 in the experiment on U2OS and in the experiment on HeLa were 9.9 µM and 4.2 µM, respectively.

As for `CCOc1ccc(-c2snnc2-c2cc(CC)c(O)c(Cl)c2O)cc1`, the GI50 in the experiment on U2OS was 28 µM; in the experiment with HeLa it was 19 µM. The Kd (in experiment [1]; at Heat shock protein HSP90) was above 20 µM each time.

Consider `CCOc1ccc(-c2snnc2-c2cc(Cl)c(O)cc2O)cc1`, for which the 50% growth inhibitory concentration (GI50) came to 6.9 µM in the experiment on U2OS and 3.6 µM in the experiment with HeLa.
